Test results taken from PMC9409351, “Differential Ganglioside and Cholesterol Depletion by Various Cyclodextrin Derivatives and Their Effect on Synaptosomal Glutamate Release” (International Journal of Molecular Sciences, 2022).

Columns and labels:
[1] = tested on: rat cerebral synaptosomes; assay: Membrane integrity by LDH release assay; assay type: cell-based; settings: for IC50: 40 min exposure, LDH release as percentage of total LDH (Triton X-100 lysis); for Maximal effect (plateau) of LDH release: percentage of total LDH content
Procedure: Adult male Wistar rats purchased from Toxi-Coop Ltd. (Budapest, Hungary) were used in the experiments. Cerebral synaptosomes were prepared according to Modi and co-workers with the following modifications. Animals were decapitated and the brain was removed rapidly. Isotonic sucrose buffer (0.32 M sucrose, 4 mM HEPES-NaOH, pH 7.4) was used to homogenize the cerebrum with a Potter S Homogenizer (B. Braun, Melsungen, Germany) with 15 strokes at 1000 rpm. The homogenate was centrifuged (1500× g, 10 min, 4 °C) and the pellet was resuspended in sucrose buffer and centrifuged with the same parameters again. The two supernatants were combined and centrifuged (20,000× g, 10 min, 4 °C) to pellet the crude synaptosomes. […] Synaptosomes were stored frozen using cryopreservation buffer and the slow freezing method to preserve their physiological state and integrity. Briefly, synaptosome pellets were resuspended in isotonic sucrose buffer containing 10% DMSO (v/v) and 10% FBS (v/v). To slow down the freezing process at −80 °C, synaptosomes were placed in a 3 cm thick-walled polystyrene box with a lid. Synaptosomes were stored at −80 °C until use. Immediately prior to the experiments, synaptosomes were rapidly thawed in a 37 °C water bath and pelleted by centrifugation (20,000× g, 10 min, 4 °C) to remove the cryopreservation buffer. […] For all types of experiments, except for the glutamate release measurements, vehicle-treated (control) and CD-treated synaptosomes were incubated in 500 μL HEPES-glucose buffer with or without CDs, respectively, for 40 min at 37 °C. […] After incubation, the synaptosomes were centrifuged (20,000× g, 5 min, 4 °C) and used immediately for further analysis. A slightly different incubation method used in the glutamate release measurements is described in the corresponding section. Across all types of experiments, osmolarities of the CD solutions were adjusted and they were between 290 and 310 mOsm. At least three parallel measurements were carried out. The membrane integrity of the synaptosomes was measured by the CytoTox-ONE Homogeneous Membrane Integrity Assay (Promega, Madison, WI, USA) with minor modifications. The assay measures the release of the lactate dehydrogenase (LDH) enzyme from synaptosomes with damaged membranes. […] Both the supernatant and lysis samples were diluted 10-fold. The LDH activity was then assessed according to the manufacturer’s instructions and the fluorescence was measured by a Varioskan LUX multimode microplate reader (Thermo Fisher Scientific) at 530/590 nm.

[2] = tested on: cholesterol content of rat cerebral synaptosomes; assay: Cholesterol depletion from synaptosomes, Cholesterol Fluorometric Assay Kit; assay type: cell-based; settings: for IC50: rat cerebral synaptosomes, 40 min exposure, 37 °C; for Cholesterol depletion in the tested concentration range: tested concentration range 0.3–100 mM
Procedure: Adult male Wistar rats purchased from Toxi-Coop Ltd. (Budapest, Hungary) were used in the experiments. Cerebral synaptosomes were prepared according to Modi and co-workers with the following modifications. Animals were decapitated and the brain was removed rapidly. Isotonic sucrose buffer (0.32 M sucrose, 4 mM HEPES-NaOH, pH 7.4) was used to homogenize the cerebrum with a Potter S Homogenizer (B. Braun, Melsungen, Germany) with 15 strokes at 1000 rpm. The homogenate was centrifuged (1500× g, 10 min, 4 °C) and the pellet was resuspended in sucrose buffer and centrifuged with the same parameters again. The two supernatants were combined and centrifuged (20,000× g, 10 min, 4 °C) to pellet the crude synaptosomes. The resulting supernatant was discarded and the pellet was washed again with an equal volume of sucrose buffer and then pelleted by centrifugation (20,000× g, 10 min, 4 °C). Synaptosomes were stored frozen using cryopreservation buffer and the slow freezing method to preserve their physiological state and integrity. Briefly, synaptosome pellets were resuspended in isotonic sucrose buffer containing 10% DMSO (v/v) and 10% FBS (v/v). To slow down the freezing process at −80 °C, synaptosomes were placed in a 3 cm thick-walled polystyrene box with a lid. Synaptosomes were stored at −80 °C until use. Immediately prior to the experiments, synaptosomes were rapidly thawed in a 37 °C water bath and pelleted by centrifugation (20,000× g, 10 min, 4 °C) to remove the cryopreservation buffer. The pellet was resuspended in isotonic HEPES-glucose buffer (10 mM HEPES-NaOH, 130 mM NaCl, 5.4 mM KCl, 1.3 mM CaCl2, 0.9 mM MgCl2, 5.5 mM glucose, pH 7.4) and aliquoted according to the experimental design.
For all types of experiments, except for the glutamate release measurements, vehicle-treated (control) and CD-treated synaptosomes were incubated in 500 μL HEPES-glucose buffer with or without CDs, respectively, for 40 min at 37 °C. […] After incubation, the synaptosomes were centrifuged (20,000× g, 5 min, 4 °C) and used immediately for further analysis. A slightly different incubation method used in the glutamate release measurements is described in the corresponding section. Across all types of experiments, osmolarities of the CD solutions were adjusted and they were between 290 and 310 mOsm. At least three parallel measurements were carried out.
The cholesterol levels of the rat cerebral synaptosomes were measured with a Cholesterol Fluorometric Assay Kit (Cayman Chemical Company, Ann Arbor, MI, USA) with minor adjustments for the sample preparation. Briefly, after CD treatments, 2 mg of the synaptosomes were extracted with 10 vol chloroform–methanol 2:1 (v/v) to gain a lipid extract. The samples were centrifuged (20,000× g, 5 min, 4 °C) and then the supernatant was evaporated to dryness under a nitrogen stream (Zymark TurboVap LV) in a 37 °C water bath. The extracts were resuspended and diluted in the assay buffer (1.2 mL/mg synaptosome). Further preparation of the assay was according to the manufacturer’s protocol. Fluorescence was measured with a Varioskan LUX multimode microplate reader (Thermo Fisher Scientific, Waltham, MA, USA) at 530/590 nm. Cholesterol depletion in the CD-treated synaptosomes was calculated as the percentage of the cholesterol content of the vehicle-treated synaptosomes.
Data were analyzed by GraphPad Prism 8 (GraphPad Software, La Jolla, CA, USA). Concentration–response curves were constructed by the nonlinear regression method. One-way ANOVA followed by Bonferroni’s post hoc test was used for the data analysis in the case of the glutamate release experiments. All data are presented as means ± SEM of at least three parallel measurements. Differences were considered significant if p < 0.05.

IC50 ([1]; Rattus norvegicus, 40 min) [mM] | Compound | IC50 [1] [mM] | Maximal effect (plateau) of LDH release [1] | Cholesterol extraction at 10 mM ([2]; 10 mM) | Cholesterol extraction at 30 mM ([2]; 30 mM) | IC50 [2] [mM] | IC50 ([2]; 40 min) [mM] | Cholesterol depletion in the tested concentration range [2] | Concentration with influence on membrane integrity ([1]; LDH release, highest tested concentration) [µM]
– | COC[C@H]1O[C@@H]2O[C@H]3[C@H](O)[C@@H](OC)[C@@H](O[C@H]4[C@H](O)[C@@H](OC)[C@@H](O[C@H]5[C@H](O)[C@@H](OC)[C@@H](O[C@H]6[C@H](O)[C@@H](OC)[C@@H](O[C@H]7[C@H](O)[C@@H](OC)[C@@H](O[C@H]8[C@H](O)[C@@H](OC)[C@@H](O[C@H]1[C@H](O)[C@H]2OC)O[C@@H]8COC)O[C@@H]7COC)O[C@@H]6COC)O[C@@H]5COC)O[C@@H]4COC)O[C@@H]3COC [DIMEB, heptakis(2,6-di-O-methyl)-beta-cyclodextrin] | 18.3 | about 60% | approximately 50% | Nearly total extraction | 7.4 | – | – | –
31 | CC(O)COC[C@H]1O[C@@H]2O[C@H]3[C@H](O)[C@@H](O)[C@@H](O[C@H]4[C@H](O)[C@@H](O)[C@@H](O[C@H]5[C@H](O)[C@@H](O)[C@@H](O[C@H]6[C@H](O)[C@@H](O)[C@@H](O[C@H]7[C@H](O)[C@@H](O)[C@@H](O[C@H]8[C@H](O)[C@@H](O)[C@@H](O[C@H]1[C@H](O)[C@H]2O)O[C@@H]8COCC(C)O)O[C@@H]7COCC(C)O)O[C@@H]6COCC(C)O)O[C@@H]5COCC(C)O)O[C@@H]4COCC(C)O)O[C@@H]3COCC(C)O (stereo partly drawn) [HPBCD, (2-hydroxypropyl)-beta-cyclodextrin] | – | 43% | – | – | – | 33.5 | – | –
– | (2-hydroxypropyl)-alpha-cyclodextrin [HPACD] | > 100 | – | – | – | – | – | without affecting the cholesterol content | –
– | randomly methylated alpha-cyclodextrin [RAMEA] | > 60 | – | – | – | – | – | without affecting the cholesterol content | 100000
